Test results reported in patent publication US11840533B2, “Pyridinone-based epigenetic modifiers and uses thereof” (THE BOARD OF TRUSTEES OF THE UNIVERSITY OF ILLINOIS, priority 2017, dated 2023).

system: fulvestrant-resistant MCF7:5C-FR cells; test: Fulvestrant-resistant breast cancer cell viability (cell proliferation) assay; format: cell-based; settings: 120 h, growth inhibition in fulvestrant-resistant MCF-7:CFR cells, 120 hrs
Outline: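 Cells were treated the day after seeding with compounds at 3 nM to 10 uM for 120 h, with 0.1% DMSO vehicle and 1 uM JQ1 as positive control. Hoechst 33342-stained (5 μg/ml, 90 min, 37 C) nuclei were imaged and counted, and cell numbers normalized to vehicle.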

Question: Which IC50 does the source give for `C=CC(=O)Cn1cc(-c2cc(NS(C)(=O)=O)c3ccn(Cc4ccccc4)c3c2)c2ccnc(O)c21` [Compound 97, N-(1-benzyl-6-(7-hydroxy-1-(2-oxobut-3-en-1-yl)-1H-pyrrolo[2,3-c]pyridin-3-yl)-1H-indol-4-yl)methanesulfonamide] here?
Answer: > 0.1 µM

Question: With `CS(=O)(=O)Nc1cc(-c2cn(CC3CO3)c3c(O)nccc23)cc2c1ccn2Cc1ccccc1` (centres unmarked) [Compound 98, N-(1-benzyl-6-(7-hydroxy-1-(oxiran-2-ylmethyl)-1H-pyrrolo[2,3-c]pyridin-3-yl)-1H-indol-4-yl)methanesulfonamide] as the compound, how does the IC50 read?
Answer: < 1 µM

Question: Which IC50 does the source give for `CS(=O)(=O)Nc1cc(-c2cn(CC(=O)CCl)c3c(O)nccc23)cc2c1ccn2Cc1ccccc1` [Compound 99, N-(1-benzyl-6-(1-(3-chloro-2-oxopropyl)-7-hydroxy-1H-pyrrolo[2,3-c]pyridin-3-yl)-1H-indol-4-yl)methanesulfonamide] here?
Answer: < 1 µM

Question: For `Cn1cc(-c2cc(NS(C)(=O)=O)c3ccn(Cc4cccc(F)c4)c3c2)c2cc[nH]c(=O)c21` [Compound 100, N-(1-(3-fluorobenzyl)-6-(1-methyl-7-oxo-6,7-dihydro-1H-pyrrolo[2,3-c]pyridin-3-yl)-1H-indol-4-yl)methanesulfonamide], which IC50 is on record?
Answer: < 1 µM

Question: How did the IC50 turn out when `Cc1cc(F)cc(C)c1Cn1ccc2c(NS(C)(=O)=O)cc(-c3cn(C)c4c(=O)[nH]ccc34)cc21` [Compound 101, N-(1-(4-fluoro-2,6-dimethylbenzyl)-6-(1-methyl-7-oxo-6,7-dihydro-1H-pyrrolo[2,3-c]pyridin-3-yl)-1H-indol-4-yl)methanesulfonamide] was run?
Answer: < 1 µM

Question: With `CCS(=O)(=O)Nc1cc(-c2cn(C)c3c(=O)[nH]ccc23)cc2c1ccn2C(C)(c1nccs1)c1nccs1` [Compound 102, N-(1-(1,1-di(thiazol-2-yl)ethyl)-6-(1-methyl-7-oxo-6,7-dihydro-1H-pyrrolo[2,3-c]pyridin-3-yl)-1H-indol-4-yl)ethanesulfonamide] as the compound, how does the IC50 read?
Answer: < 1 µM

Question: With `CC(=O)Nc1cc(-c2cn(C)c3c(=O)[nH]ccc23)cc2c1ccn2Cc1cccc(F)c1` [Compound 103, N-(1-(3-fluorobenzyl)-6-(1-methyl-7-oxo-6,7-dihydro-1H-pyrrolo[2,3-c]pyridin-3-yl)-1H-indol-4-yl)acetamide] as the compound, how does the IC50 read?
Answer: < 1 µM

Question: How did the IC50 turn out when `CCC(=O)Nc1cc(-c2cn(C)c3c(=O)[nH]ccc23)cc2c1ccn2C(C)(c1cnccn1)c1cnccn1` [Compound 104, N-(1-(1,1-di(pyrazin-2-yl)ethyl)-6-(1-methyl-7-oxo-6,7-dihydro-1H-pyrrolo[2,3-c]pyridin-3-yl)-1H-indol-4-yl)propionamide] was run?
Answer: < 1 µM

Question: With `Cn1cc(-c2cc(C(C)(C)O)c3ccn(CC4(C)COC4)c3c2)c2cc[nH]c(=O)c21` [Compound 105, 3-(4-(2-hydroxypropan-2-yl)-1-((3-methyloxetan-3-yl)methyl)-1H-indol-6-yl)-1-methyl-1,6-dihydro-7H-pyrrolo[2,3-c]pyridin-7-one] as the compound, how does the IC50 read?
Answer: < 1 µM

Question: Which IC50 does the source give for `Cn1cc(-c2cc(C(C)(C)O)c3ccn(CC4CC(F)(F)C4)c3c2)c2cc[nH]c(=O)c21` [Compound 106, 3-(1-((3,3-difluorocyclobutyl)methyl)-4-(2-hydroxypropan-2-yl)-1H-indol-6-yl)-1-methyl-1,6-dihydro-7H-pyrrolo[2,3-c]pyridin-7-one] here?
Answer: < 1 µM

Question: Which IC50 does the source give for `Cn1cc(-c2cc(C(C)(C)O)c3ccn(Cc4cccc(F)c4)c3c2)c2cc[nH]c(=O)c21` [Compound 107, 3-(1-(3-fluorobenzyl)-4-(2-hydroxypropan-2-yl)-1H-indol-6-yl)-1-methyl-1,6-dihydro-7H-pyrrolo[2,3-c]pyridin-7-one] here?
Answer: < 1 µM

Question: How did the IC50 turn out when `Cc1cc(F)cc(C)c1Cn1ccc2c(C(C)(C)O)cc(-c3cn(C)c4c(=O)[nH]ccc34)cc21` [Compound 108, 3-(1-(4-fluoro-2,6-dimethylbenzyl)-4-(2-hydroxypropan-2-yl)-1H-indol-6-yl)-1-methyl-1,6-dihydro-7H-pyrrolo[2,3-c]pyridin-7-one] was run?
Answer: < 1 µM

Question: For `Cn1cc(-c2cc(C(C)(C)O)c3ccn(C(C)(c4cnccn4)c4cnccn4)c3c2)c2cc[nH]c(=O)c21` [Compound 109, 3-(1-(1,1-di(pyrazin-2-yl)ethyl)-4-(2-hydroxypropan-2-yl)-1H-indol-6-yl)-1-methyl-1,6-dihydro-7H-pyrrolo[2,3-c]pyridin-7-one], which IC50 is on record?
Answer: < 1 µM

Question: Which IC50 does the source give for `Cn1ccnc1C(C)(c1nccn1C)n1ccc2c(C(C)(C)O)cc(-c3cn(C)c4c(=O)[nH]ccc34)cc21` [Compound 110, 3-(1-(1,1-bis(1-methyl-1H-imidazol-2-yl)ethyl)-4-(2-hydroxypropan-2-yl)-1H-indol-6-yl)-1-methyl-1,6-dihydro-7H-pyrrolo[2,3-c]pyridin-7-one] here?
Answer: < 1 µM

Question: How did the IC50 turn out when `Cn1cc(-c2cc(C(C)(C)O)c3ccn(C(C)(c4nccs4)c4nccs4)c3c2)c2cc[nH]c(=O)c21` [Compound 111, 3-(1-(1,1-di(thiazol-2-yl)ethyl)-4-(2-hydroxypropan-2-yl)-1H-indol-6-yl)-1-methyl-1,6-dihydro-7H-pyrrolo[2,3-c]pyridin-7-one] was run?
Answer: < 1 µM

Question: How did the IC50 turn out when `Cc1cccc(C)c1Cn1ccc2c(C(C)(C)O)cc(-c3cn(C)c4c(=O)[nH]ccc34)cc21` [Compound 113, 3-(1-(2,6-dimethylbenzyl)-4-(2-hydroxypropan-2-yl)-1H-indol-6-yl)-1-methyl-1,6-dihydro-7H-pyrrolo[2,3-c]pyridin-7-one] was run?
Answer: < 1 µM

Question: `Cc1cccc(Cl)c1Cn1ccc2c(C(C)(C)O)cc(-c3cn(C)c4c(=O)[nH]ccc34)cc21` [Compound 114, 3-(1-(2-chloro-6-methylbenzyl)-4-(2-hydroxypropan-2-yl)-1H-indol-6-yl)-1-methyl-1,6-dihydro-7H-pyrrolo[2,3-c]pyridin-7-one] was tested. Which IC50 did it give?
Answer: < 1 µM

Question: With `CCS(=O)(=O)c1cccc2c1nc(-c1cn(C)c3c(O)nccc13)n2[C@H](c1ccccc1)C1CCOCC1` [Compound 115, (S)-3-(4-(ethylsulfonyl)-1-(phenyl(tetrahydro-2H-pyran-4-yl)methyl)-1H-benzo[d]imidazol-2-yl)-1-methyl-1H-pyrrolo[2,3-c]pyridin-7-ol] as the compound, how does the IC50 read?
Answer: < 1 µM

Question: For `Cn1cc(-c2cc3c(C(C)(C)O)cccc3n2[C@@H](c2ccccc2)C2CCOCC2)c2ccnc(O)c21` [Compound 116, (R)-3-(4-(2-hydroxypropan-2-yl)-1-(phenyl(tetrahydro-2H-pyran-4-yl)methyl)-1H-indol-2-yl)-1-methyl-1H-pyrrolo[2,3-c]pyridin-7-ol], which IC50 is on record?
Answer: < 1 µM

Question: `Cn1cc(-c2cc3c(C(C)(C)O)cccc3n2[C@H](c2ccccc2)C2CCOCC2)c2ccnc(O)c21` [Compound 117, (S)-3-(4-(2-hydroxypropan-2-yl)-1-(phenyl(tetrahydro-2H-pyran-4-yl)methyl)-1H-indol-2-yl)-1-methyl-1H-pyrrolo[2,3-c]pyridin-7-ol] was tested. Which IC50 did it give?
Answer: < 1 µM

Question: Which IC50 does the source give for `CC(=O)Nc1cccc2c1cc(-c1cn(C)c3c(O)nccc13)n2[C@@H](c1ccccc1)C1CCOCC1` [Compound 118, (R)-N-(2-(7-hydroxy-1-methyl-1H-pyrrolo[2,3-c]pyridin-3-yl)-1-(phenyl(tetrahydro-2H-pyran-4-yl)methyl)-1H-indol-4-yl)acetamide] here?
Answer: < 1 µM

Question: Which IC50 does the source give for `CC(=O)Nc1cccc2c1cc(-c1cn(C)c3c(O)nccc13)n2[C@H](c1ccccc1)C1CCOCC1` [Compound 119, (S)-N-(2-(7-hydroxy-1-methyl-1H-pyrrolo[2,3-c]pyridin-3-yl)-1-(phenyl(tetrahydro-2H-pyran-4-yl)methyl)-1H-indol-4-yl)acetamide] here?
Answer: < 1 µM

Question: With `CCS(=O)(=O)c1cccc2c1cc(-c1cn(C)c3c(O)nccc13)n2[C@H](c1ccccc1)C1CCOCC1` [Compound 120, (S)-3-(4-(ethylsulfonyl)-1-(phenyl(tetrahydro-2H-pyran-4-yl)methyl)-1H-indol-2-yl)-1-methyl-1H-pyrrolo[2,3-c]pyridin-7-ol] as the compound, how does the IC50 read?
Answer: < 1 µM

Question: How did the IC50 turn out when `CCS(=O)(=O)c1cccc2c1cc(-c1cn(C)c3c(O)nccc13)n2[C@@H](c1ccccc1)C1CCOCC1` [Compound 121, (R)-3-(4-(ethylsulfonyl)-1-(phenyl(tetrahydro-2H-pyran-4-yl)methyl)-1H-indol-2-yl)-1-methyl-1H-pyrrolo[2,3-c]pyridin-7-ol] was run?
Answer: < 1 µM

Question: With `Cn1cc(-c2cc3c(NS(C)(=O)=O)cccc3n2[C@H](c2ccccc2)C2CCOCC2)c2ccnc(O)c21` [Compound 122, (S)-N-(2-(7-hydroxy-1-methyl-1H-pyrrolo[2,3-c]pyridin-3-yl)-1-(phenyl(tetrahydro-2H-pyran-4-yl)methyl)-1H-indol-4-yl)methanesulfonamide] as the compound, how does the IC50 read?
Answer: < 1 µM

Question: `Cn1cc(-c2cc3c(NS(C)(=O)=O)cccc3n2[C@@H](c2ccccc2)C2CCOCC2)c2ccnc(O)c21` [Compound 123, (R)-N-(2-(7-hydroxy-1-methyl-1H-pyrrolo[2,3-c]pyridin-3-yl)-1-(phenyl(tetrahydro-2H-pyran-4-yl)methyl)-1H-indol-4-yl)methanesulfonamide] was tested. Which IC50 did it give?
Answer: < 1 µM

Question: With `CC(C)C(=O)Nc1cccc2c1cc(-c1cn(C)c3c(O)nccc13)n2[C@@H](c1ccccc1)C1CCOCC1` [Compound 124, (R)-N-(2-(7-hydroxy-1-methyl-1H-pyrrolo[2,3-c]pyridin-3-yl)-1-(phenyl(tetrahydro-2H-pyran-4-yl)methyl)-1H-indol-4-yl)isobutyramide] as the compound, how does the IC50 read?
Answer: < 1 µM

Question: `CC(C)C(=O)Nc1cccc2c1cc(-c1cn(C)c3c(O)nccc13)n2[C@H](c1ccccc1)C1CCOCC1` [Compound 125, (S)-N-(2-(7-hydroxy-1-methyl-1H-pyrrolo[2,3-c]pyridin-3-yl)-1-(phenyl(tetrahydro-2H-pyran-4-yl)methyl)-1H-indol-4-yl)isobutyramide] was tested. Which IC50 did it give?
Answer: < 1 µM

same assay, conditions: growth inhibition in fulvestrant-resistant MCF-7:CFR cells, 120 hrs

Question: For `CCS(=O)(=O)Nc1cc(-c2cn(CCCl)c3c(O)nccc23)cc2c1ccn2Cc1c(C)cccc1C` [Compound 96, N-(6-(1-(2-chloroethyl)-7-hydroxy-1H-pyrrolo[2,3-c]pyridin-3-yl)-1-(2,6-dimethylbenzyl)-1H-indol-4-yl)ethanesulfonamide], which IC50 is on record?
Answer: > 0.1 µM
